Source: paper PMC10041525, “New Dual Inhibitors of Bacterial Topoisomerases with Broad-Spectrum Antibacterial Activity and In Vivo Efficacy against Vancomycin-Intermediate Staphylococcus aureus” (Journal of Medicinal Chemistry, 2023)
Converted amounts (≈) assume the structure as drawn. “And” between values parts separate entries of the source, which are not always exact repeats. Equal entries are not always repeated. Where two headings read alike, the source gives them in different places.

Key:
[1] = target: T1, P. aeruginosa DNA gyrase (Pseudomonas aeruginosa, UniProt Q9I7C2); test: supercoiling HTS assay; format: biochemical
T1 construct: purchased Inspiralis
T1 sequence (Q9I7C2 whole entry): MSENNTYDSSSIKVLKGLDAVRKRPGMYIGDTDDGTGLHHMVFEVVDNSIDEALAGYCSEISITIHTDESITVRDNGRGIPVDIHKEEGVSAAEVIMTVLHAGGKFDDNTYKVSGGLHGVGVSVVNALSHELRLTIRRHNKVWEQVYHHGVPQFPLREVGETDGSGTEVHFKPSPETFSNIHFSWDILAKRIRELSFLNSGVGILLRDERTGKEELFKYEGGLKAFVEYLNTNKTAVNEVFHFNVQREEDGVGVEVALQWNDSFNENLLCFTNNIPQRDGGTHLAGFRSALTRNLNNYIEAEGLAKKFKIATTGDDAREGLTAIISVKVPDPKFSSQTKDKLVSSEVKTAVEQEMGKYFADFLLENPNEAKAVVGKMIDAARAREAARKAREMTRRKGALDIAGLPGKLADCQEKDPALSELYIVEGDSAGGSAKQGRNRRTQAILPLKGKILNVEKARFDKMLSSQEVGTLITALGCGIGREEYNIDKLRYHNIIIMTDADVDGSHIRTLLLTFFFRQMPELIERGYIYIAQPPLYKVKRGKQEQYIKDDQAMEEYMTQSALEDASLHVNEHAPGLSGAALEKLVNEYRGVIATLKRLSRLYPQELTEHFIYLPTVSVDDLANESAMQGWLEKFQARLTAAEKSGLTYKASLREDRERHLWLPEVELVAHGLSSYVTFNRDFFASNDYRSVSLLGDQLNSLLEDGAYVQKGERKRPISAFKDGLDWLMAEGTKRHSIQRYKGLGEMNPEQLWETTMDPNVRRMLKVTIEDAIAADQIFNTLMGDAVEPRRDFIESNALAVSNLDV
T1 sequence (P48372 whole entry, further chain): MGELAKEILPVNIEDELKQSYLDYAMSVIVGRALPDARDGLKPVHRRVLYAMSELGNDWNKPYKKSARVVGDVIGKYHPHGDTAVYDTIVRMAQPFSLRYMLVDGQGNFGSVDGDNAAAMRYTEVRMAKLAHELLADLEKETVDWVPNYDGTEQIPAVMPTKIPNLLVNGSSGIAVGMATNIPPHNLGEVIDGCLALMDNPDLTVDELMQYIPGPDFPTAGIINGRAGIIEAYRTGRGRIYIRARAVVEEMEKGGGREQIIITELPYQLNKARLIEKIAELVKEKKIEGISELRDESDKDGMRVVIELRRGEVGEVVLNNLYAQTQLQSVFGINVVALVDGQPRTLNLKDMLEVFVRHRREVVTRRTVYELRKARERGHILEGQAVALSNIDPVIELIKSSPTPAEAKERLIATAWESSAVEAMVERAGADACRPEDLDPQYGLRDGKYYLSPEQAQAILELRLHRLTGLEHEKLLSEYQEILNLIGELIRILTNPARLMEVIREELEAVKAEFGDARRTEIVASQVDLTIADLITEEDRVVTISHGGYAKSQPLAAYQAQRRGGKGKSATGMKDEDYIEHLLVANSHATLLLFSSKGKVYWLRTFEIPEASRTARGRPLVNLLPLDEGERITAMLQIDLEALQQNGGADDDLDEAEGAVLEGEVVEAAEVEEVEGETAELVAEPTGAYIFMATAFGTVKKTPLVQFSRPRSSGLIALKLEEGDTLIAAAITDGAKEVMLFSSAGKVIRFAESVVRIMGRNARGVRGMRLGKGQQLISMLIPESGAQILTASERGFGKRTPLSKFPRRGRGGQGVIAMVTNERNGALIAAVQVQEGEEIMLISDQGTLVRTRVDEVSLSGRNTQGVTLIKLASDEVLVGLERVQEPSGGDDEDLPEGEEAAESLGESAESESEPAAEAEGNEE
Procedure: The assay to determine IC50 values was performed using assay kits from Inspiralis in accordance with previously described procedures.[43] Seven concentrations of the inhibitors were used to determine IC50 values which were then calculated with GraphPad Prism 6.0 software. Three independent measurements were performed to determine IC50 values, and mean values are reported as the final result.

[2] = system: Neisseria gonorrhoeae (n = 12); test: MIC broth microdilution at IHMA Europe; format: cell-based; conditions: for MIC: Neisseria gonorrhoeae, read-out: MIC
[3] = system: Haemophilus influenzae (n = 14); test: MIC broth microdilution at IHMA Europe; format: cell-based, H. influenzae; conditions: for MIC: Haemophilus influenzae, read-out: MIC
[4] = system: E. faecium (n = 13); test: MIC broth microdilution at IHMA Europe; format: cell-based; conditions: for MIC: Enterococcus faecium, read-out: MIC
[5] = system: S. pneumoniae (n = 12); test: MIC broth microdilution at IHMA Europe; format: cell-based; conditions: for MIC: Streptococcus pneumoniae, read-out: MIC
[6] = formulation solubility study; format: physicochemical
Procedure: For the actual in vivo assay, a […] pH was used, and the compound was prepared in a formulation of 100 mM carbonate buffer at pH 8.4 with 20% hydroxypropyl β-cyclodextrin.
Solubility analysis was performed on an Acquity UPLC instrument (Waters, Milford, MA, USA). A Waters BEH C18 column (2.1 × 50 mm, 1.7 μm; Waters) was used at T = 40 °C, with the flow rate of 0.5 mL/min; PDA UV detection at λ = 256 nm; mobile phase A: 0.1% formic acid in ultrapure water; mobile phase B: 0.1% formic acid in acetonitrile. Gradient: 0–4 min, 5–100% B; 4–5 min, 100% B; 5–5.1 min, 100–5% B; 5.1–7 min, 5% B.

[7] = system: E. faecalis ATCC 29212; test: IHMA QC MIC; format: cell-based
Description: Supplement jm2c01905_si_004.xlsx, sheet "QC" | column: MIC [µg/mL]

## Cc1[nH]c(C(=O)Nc2nc3c(N4CCOCC4)cc(C(=O)O)cc3s2)c(Cl)c1Cl [7a, 2-(3,4-Dichloro-5-methyl-1H-pyrrole-2-carboxamido)-4-morpholinobenzo[d]thiazole-6-carboxylic Acid]
[1]
  IC50: < 10 nM
[2]
  Cumulative % at MIC: 50.0% and 100.0%
  No. of isolates at MIC: 6
[2]; MIC 0.06 µg/mL
  No. of isolates at MIC: 6
[2]; isolate IHMA 1123853
  MIC: ≤ 0.03 µg/mL
[2]; isolate IHMA 1130935
  MIC: ≤ 0.03 µg/mL
[2]; isolate IHMA 1130989
  MIC: 0.06 µg/mL (≈ 0.132 µM)
[2]; isolate IHMA 1130991
  MIC: 0.06 µg/mL (≈ 0.132 µM)
[2]; isolate IHMA 1137292
  MIC: 0.06 µg/mL (≈ 0.132 µM)
[2]; isolate IHMA 1145734
  MIC: ≤ 0.03 µg/mL
[2]; isolate IHMA 1145735
  MIC: ≤ 0.03 µg/mL
[2]; isolate IHMA 1165897
  MIC: ≤ 0.03 µg/mL
[2]; isolate IHMA 1194748
  MIC: ≤ 0.03 µg/mL
[2]; isolate IHMA 1194750
  MIC: 0.06 µg/mL (≈ 0.132 µM)
[2]; isolate IHMA 1546199
  MIC: 0.06 µg/mL (≈ 0.132 µM)
[2]; isolate IHMA 1546215
  MIC: 0.06 µg/mL (≈ 0.132 µM)
[2]; n = 12
  MIC, all isolates: ≤ 0.06 µg/mL
[3]
  No. of isolates at MIC: 3 and 6 and 4
[3]; H. influenzae IHMA N° 1227715
  MIC: 0.12 µg/mL (≈ 0.264 µM)
[3]; H. influenzae IHMA N° 1241620
  MIC: 0.25 µg/mL (≈ 0.549 µM)
[3]; H. influenzae IHMA N° 1244149
  MIC: 0.5 µg/mL (≈ 1.1 µM)
[3]; H. influenzae IHMA N° 1249803
  MIC: 0.12 µg/mL (≈ 0.264 µM)
[3]; H. influenzae IHMA N° 1254355
  MIC: 0.25 µg/mL (≈ 0.549 µM)
[3]; H. influenzae IHMA N° 1258580
  MIC: 0.5 µg/mL (≈ 1.1 µM)
[3]; H. influenzae IHMA N° 1262734
  MIC: 0.25 µg/mL (≈ 0.549 µM)
[3]; H. influenzae IHMA N° 1272723
  MIC: 0.25 µg/mL (≈ 0.549 µM)
[3]; H. influenzae IHMA N° 1286846
  MIC: 0.5 µg/mL (≈ 1.1 µM)
[3]; H. influenzae IHMA N° 1337530
  MIC: 0.12 µg/mL (≈ 0.264 µM)
[3]; H. influenzae IHMA N° 1440085
  MIC: 0.5 µg/mL (≈ 1.1 µM)
[3]; H. influenzae IHMA N° 1479509
  MIC: 1 µg/mL (≈ 2.2 µM)
[3]; H. influenzae IHMA N° 1952952
  MIC: 0.25 µg/mL (≈ 0.549 µM)
[3]; H. influenzae IHMA N° 2047461
  MIC: 0.25 µg/mL (≈ 0.549 µM)
[3]; MIC 1 µg/mL
  Cumulative % at MIC: 100.0%
  No. of isolates at MIC: 1
[3]; n = 14
  MIC, all isolates: ≤ 1 µg/mL
[4]
  Cumulative % at MIC: 61.5% and 100.0%
  No. of isolates at MIC: 8 and 5
[4]; E. faecium IHMA N° 1764866
  MIC: 0.06 µg/mL (≈ 0.132 µM)
[4]; E. faecium IHMA N° 1765436
  MIC: 0.06 µg/mL (≈ 0.132 µM)
[4]; E. faecium IHMA N° 1765746
  MIC: 0.06 µg/mL (≈ 0.132 µM)
[4]; E. faecium IHMA N° 1893573
  MIC: 0.06 µg/mL (≈ 0.132 µM)
[4]; E. faecium IHMA N° 1893846
  MIC: 0.12 µg/mL (≈ 0.264 µM)
[4]; E. faecium IHMA N° 1893942
  MIC: 0.12 µg/mL (≈ 0.264 µM)
[4]; E. faecium IHMA N° 1894055
  MIC: 0.12 µg/mL (≈ 0.264 µM)
[4]; E. faecium IHMA N° 1897027
  MIC: 0.12 µg/mL (≈ 0.264 µM)
[4]; E. faecium IHMA N° 1897101
  MIC: 0.06 µg/mL (≈ 0.132 µM)
[4]; E. faecium IHMA N° 1904592
  MIC: 0.06 µg/mL (≈ 0.132 µM)
[4]; E. faecium IHMA N° 2075051
  MIC: 0.12 µg/mL (≈ 0.264 µM)
[4]; E. faecium IHMA N° 2077718
  MIC: 0.06 µg/mL (≈ 0.132 µM)
[4]; E. faecium IHMA N° 2083787
  MIC: 0.06 µg/mL (≈ 0.132 µM)
[4]; n = 13
  MIC, all isolates: ≤ 0.12 µg/mL
[5]; MIC […]
  Cumulative % at MIC: 25.0%
[5]; S. pneumoniae IHMA N° 1775387
  MIC: 0.5 µg/mL (≈ 1.1 µM)
[5]; S. pneumoniae IHMA N° 1776057
  MIC: 0.5 µg/mL (≈ 1.1 µM)
[5]; S. pneumoniae IHMA N° 1785617
  MIC: 0.25 µg/mL (≈ 0.549 µM)
[5]; S. pneumoniae IHMA N° 1800765
  MIC: 0.5 µg/mL (≈ 1.1 µM)
[5]; S. pneumoniae IHMA N° 1811259
  MIC: 0.06 µg/mL (≈ 0.132 µM)
[5]; S. pneumoniae IHMA N° 1831562
  MIC: 0.5 µg/mL (≈ 1.1 µM)
[5]; S. pneumoniae IHMA N° 1902609
  MIC: 0.5 µg/mL (≈ 1.1 µM)
[5]; S. pneumoniae IHMA N° 1979675
  MIC: 0.5 µg/mL (≈ 1.1 µM)
[5]; S. pneumoniae IHMA N° 1991963
  MIC: 0.5 µg/mL (≈ 1.1 µM)
[5]; S. pneumoniae IHMA N° 2057487
  MIC: 0.5 µg/mL (≈ 1.1 µM)
[5]; S. pneumoniae IHMA N° 2073087
  MIC: 0.5 µg/mL (≈ 1.1 µM)
[5]; S. pneumoniae IHMA N° 2117109
  MIC: 0.12 µg/mL (≈ 0.264 µM)
[5]; n = 12
  MIC, all isolates: ≤ 0.5 µg/mL
[6]; 100 mM carbonate buffer with 20% CD, pH 8.0, 20% CD
  solubility: 3800 µg/mL (≈ 8350 µM)
[6]; 100 mM carbonate buffer, pH 9.0, 20% hydroxypropyl β-cyclodextrin
  solubility: 13200 µg/mL (≈ 29000 µM)
[7]; Enterococcus faecalis, ATCC29212
  MIC: 0.06 µg/mL (≈ 0.132 µM)
[7]; QC strain E. faecalis ATCC 29212, test date 2021-11-26
  MIC: 0.06 µg/mL (≈ 0.132 µM)
